What was measured:
[1] = target: T1, Collagenase from Clostridium histolyticum (ChC); assay: FALGPA hydrolysis, absorbance at […] nm; format: biochemical, Hathewaya histolytica; conditions: 2 mM FALGPA solution; 50 mM Tricine, 400 mM NaCl, 10 mM CaCl2, pH 7.5; 15 min preincubation
T1 construct: gene colG; docking used another collagenase (MMP)

[2] = target: T2, Porcine pancreatic elastase (Sus scrofa, UniProt P00772); assay: chromogenic peptide hydrolysis, absorbance at […] nm; format: biochemical; conditions: 0.8 mM N-succinyl-Ala-Ala-Ala-p-nitroanilide; 15 min preincubation
T2 construct: gene CELA1; native pancreatic enzyme preparation; docking used another elastase (Zn metalloprotease, MMP12)
T2 sequence (P00772 27-266): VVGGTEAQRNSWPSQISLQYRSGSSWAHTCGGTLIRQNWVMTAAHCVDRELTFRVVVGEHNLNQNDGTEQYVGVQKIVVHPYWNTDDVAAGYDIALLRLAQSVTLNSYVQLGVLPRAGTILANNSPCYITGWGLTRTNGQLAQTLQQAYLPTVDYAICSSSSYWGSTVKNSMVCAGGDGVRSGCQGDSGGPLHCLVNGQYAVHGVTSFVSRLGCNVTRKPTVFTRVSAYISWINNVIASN

Row | Compound | Parameter / Collagenase [1] | Parameter / Elastase [2]
1 | O=c1c(O)c(-c2ccc(O)c(O)c2)oc2cc(O)cc(O)c12 [Quercetin] | 24.83 ± 1.8 µg/mL | –
2 | O=c1cc(CO)occ1O [Kojic acid] | – | 21.60 ± 0.9 µg/mL
